Measurements reported in ChEMBL document CHEMBL1201862, “PubChem BioAssay data set” (2004).
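Step 1: Grow cells in 96-well plates. Step 2: Expose to compound for 48 hours at 5 concentrations. Step 3: Interpolate endpoints linearly; if unreached, use highest concentration. Here, GI50 denotes the concentration required for 50% inhibition of growth.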 Activity calls are given as the source filed them. No stated cut-off is given here; in the data, active = GI50 up to about 1.1 µM and inactive = higher.

Tests used:
Assay in all cases: inhibition of tumour cell growth, NCI panel, 48 h
SK-OV-3 = tested on: SK-OV-3
HOP-62 = tested on: HOP-62
ACHN = tested on: ACHN
786-0 = tested on: 786-0
SF-268 = tested on: SF-268
SNB-75 = tested on: SNB-75
SK-MEL-2 = tested on: SK-MEL-2
HL-60 = tested on: HL-60
SF-295 = tested on: SF-295
NCI-H226 = tested on: NCI-H226
K562 = tested on: K562
UACC-257 = tested on: UACC-257
MOLT-4 = tested on: MOLT-4
SF-539 = tested on: SF-539
LOX IMVI = tested on: LOX IMVI
SK-MEL-28 = tested on: SK-MEL-28
HCT-15 = tested on: HCT-15
CAKI-1 = tested on: CAKI-1

CCC1(CC)C(=O)NC(=S)N=C1N
GI50 (SK-OV-3): > 100 µM (inactive) | GI50 (HOP-62): > 100 µM (inactive) | GI50 (ACHN): > 100 µM (inactive) | GI50 (786-0): > 100 µM (inactive) | GI50 (SF-268): > 100 µM (inactive) | GI50 (SNB-75): 57 µM (inactive) | GI50 (SK-MEL-2): > 100 µM (inactive) | GI50 (HL-60): > 100 µM (inactive) | GI50 (SF-295): > 100 µM (inactive) | GI50 (NCI-H226): > 100 µM (inactive) | GI50 (K562): > 100 µM (inactive) | GI50 (UACC-257): > 100 µM (inactive) | GI50 (MOLT-4): > 100 µM (inactive) | GI50 (SF-539): > 100 µM (inactive) | GI50 (LOX IMVI): > 100 µM (inactive) | GI50 (SK-MEL-28): > 100 µM (inactive) | GI50 (HCT-15): > 100 µM

Cc1ccc(NC(=O)CC/C(CC(=O)C(C)(C)C)=N\Nc2ccc([N+](=O)[O-])cc2[N+](=O)[O-])cc1C
GI50 (SK-OV-3): > 100 µM (inactive) | GI50 (HOP-62): 0.0522 µM (active) | GI50 (ACHN): 45.8 µM (inactive) | GI50 (786-0): 79.6 µM (inactive) | GI50 (SF-268): > 100 µM (inactive) | GI50 (SK-MEL-2): 76.4 µM (inactive) | GI50 (HL-60): > 10 µM (inactive) | GI50 (SF-295): 32.6 µM (inactive) | GI50 (NCI-H226): > 100 µM (inactive) | GI50 (K562): 28.3 µM (inactive) | GI50 (UACC-257): > 100 µM (inactive) | GI50 (MOLT-4): 28.8 µM (inactive) | GI50 (SF-539): 59.4 µM (inactive) | GI50 (LOX IMVI): 31.6 µM (inactive) | GI50 (SK-MEL-28): > 100 µM (inactive) | GI50 (HCT-15): 41.5 µM

COc1cc(C2C(Cl)C(=O)N2NC(=O)Cc2ccccc2)ccc1O (stereo unspecified)
GI50 (SK-OV-3): > 100 µM (inactive) | GI50 (HOP-62): > 100 µM (inactive) | GI50 (ACHN): 93.5 µM (inactive) | GI50 (786-0): 83.2 µM (inactive) | GI50 (SF-268): > 100 µM (inactive) | GI50 (CAKI-1): > 100 µM (inactive) | GI50 (SNB-75): 35.8 µM (inactive) | GI50 (SK-MEL-2): > 100 µM (inactive) | GI50 (HL-60): 28.1 µM (inactive) | GI50 (SF-295): > 100 µM (inactive) | GI50 (NCI-H226): 55.6 µM (inactive) | GI50 (K562): 35.2 µM (inactive) | GI50 (UACC-257): > 100 µM (inactive) | GI50 (MOLT-4): 24.6 µM (inactive) | GI50 (LOX IMVI): 77.4 µM (inactive) | GI50 (SK-MEL-28): > 100 µM (inactive) | GI50 (HCT-15): > 100 µM

N#CC(c1ccccn1)c1nc2ccccc2[nH]1 (stereo unspecified)
GI50 (SK-OV-3): > 100 µM (inactive) | GI50 (HOP-62): > 100 µM (inactive) | GI50 (ACHN): > 100 µM (inactive) | GI50 (786-0): 97.5 µM (inactive) | GI50 (SF-268): > 100 µM (inactive) | GI50 (CAKI-1): > 100 µM (inactive) | GI50 (SNB-75): 49.3 µM (inactive) | GI50 (SK-MEL-2): > 100 µM (inactive) | GI50 (HL-60): 32.3 µM (inactive) | GI50 (SF-295): > 100 µM (inactive) | GI50 (NCI-H226): > 100 µM (inactive) | GI50 (K562): > 100 µM (inactive) | GI50 (UACC-257): > 100 µM (inactive) | GI50 (MOLT-4): 47.5 µM (inactive) | GI50 (SK-MEL-28): > 100 µM (inactive)

COc1ccc(C(C2=C(O)CC(C)OC2=O)C2=C(O)CC(C)OC2=O)cc1 (stereo unspecified)
GI50 (HOP-62): > 100 µM (inactive) | GI50 (ACHN): > 100 µM (inactive) | GI50 (786-0): > 100 µM (inactive) | GI50 (SF-268): > 100 µM (inactive) | GI50 (CAKI-1): > 100 µM (inactive) | GI50 (SNB-75): > 100 µM (inactive) | GI50 (SK-MEL-2): > 100 µM (inactive) | GI50 (SF-295): > 100 µM (inactive) | GI50 (NCI-H226): > 100 µM (inactive) | GI50 (K562): > 100 µM (inactive) | GI50 (UACC-257): > 100 µM (inactive) | GI50 (MOLT-4): > 100 µM (inactive) | GI50 (SF-539): > 100 µM (inactive) | GI50 (LOX IMVI): > 100 µM (inactive) | GI50 (SK-MEL-28): > 100 µM (inactive) | GI50 (HCT-15): > 100 µM

OCC(O)C(OC1OC(CO)C(O)C(O)C1O)c1nn(-c2ccc(F)cc2)c2nc3cc(Cl)c(Cl)cc3cc12 (stereo unspecified)
GI50 (SK-OV-3): > 100 µM (inactive) | GI50 (HOP-62): > 100 µM (inactive) | GI50 (ACHN): > 100 µM (inactive) | GI50 (786-0): > 100 µM (inactive) | GI50 (SF-268): > 100 µM (inactive) | GI50 (SNB-75): > 100 µM (inactive) | GI50 (SF-295): > 100 µM (inactive) | GI50 (K562): > 100 µM (inactive) | GI50 (UACC-257): > 100 µM (inactive) | GI50 (MOLT-4): > 100 µM (inactive) | GI50 (SF-539): > 100 µM (inactive) | GI50 (LOX IMVI): > 100 µM (inactive) | GI50 (SK-MEL-28): > 100 µM (inactive) | GI50 (HCT-15): > 100 µM

CC(C)[C@H](COC(C)(C)C)/N=C/N1CSc2ccccc21
GI50 (SK-OV-3): 29 µM (inactive) | GI50 (HOP-62): 41.2 µM (inactive) | GI50 (ACHN): 25.7 µM (inactive) | GI50 (786-0): 49.8 µM (inactive) | GI50 (SF-268): 59 µM (inactive) | GI50 (SNB-75): 30.3 µM (inactive) | GI50 (SK-MEL-2): 36.2 µM (inactive) | GI50 (HL-60): 26.4 µM (inactive) | GI50 (SF-295): 24.4 µM (inactive) | GI50 (NCI-H226): 48.3 µM (inactive) | GI50 (K562): 33.7 µM (inactive) | GI50 (MOLT-4): 36.1 µM (inactive) | GI50 (SF-539): 23.5 µM (inactive) | GI50 (LOX IMVI): 33.7 µM (inactive) | GI50 (SK-MEL-28): 72.3 µM (inactive) | GI50 (HCT-15): 84.9 µM

O=C(/N=C(\Nc1ccccc1)SCCS/C(=N/C(=O)c1cccs1)Nc1ccccc1)c1cccs1
GI50 (HOP-62): 80.4 µM (inactive) | GI50 (ACHN): 43.6 µM (inactive) | GI50 (786-0): 61.4 µM (inactive) | GI50 (SF-268): > 10 µM (inactive) | GI50 (CAKI-1): 23.3 µM (inactive) | GI50 (SNB-75): 35.6 µM (inactive) | GI50 (SK-MEL-2): 94.6 µM (inactive) | GI50 (SF-295): 52.7 µM (inactive) | GI50 (NCI-H226): 55.8 µM (inactive) | GI50 (K562): 35.2 µM (inactive) | GI50 (UACC-257): 33 µM (inactive) | GI50 (MOLT-4): 24 µM (inactive) | GI50 (SF-539): > 100 µM (inactive) | GI50 (LOX IMVI): 36.3 µM (inactive) | GI50 (SK-MEL-28): 49.9 µM (inactive) | GI50 (HCT-15): 44.6 µM

CCCCCCCCCCCCC(Br)C(C)=O (stereo unspecified)
GI50 (SK-OV-3): > 100 µM (inactive) | GI50 (HOP-62): > 100 µM (inactive) | GI50 (ACHN): > 100 µM (inactive) | GI50 (786-0): > 100 µM (inactive) | GI50 (SF-268): > 100 µM (inactive) | GI50 (SK-MEL-2): > 100 µM (inactive) | GI50 (HL-60): > 100 µM (inactive) | GI50 (SF-295): > 100 µM (inactive) | GI50 (NCI-H226): > 100 µM (inactive) | GI50 (UACC-257): > 100 µM (inactive) | GI50 (SF-539): > 100 µM (inactive) | GI50 (LOX IMVI): > 100 µM (inactive) | GI50 (SK-MEL-28): > 100 µM (inactive) | GI50 (HCT-15): > 100 µM
